Data reported in patent US7700609B2, “Compositions useful as inhibitors of protein kinases” (Vertex Pharmaceuticals Incorporated, priority 2003, dated 2010).

Biological target: T1, Itk (Homo sapiens, UniProt Q08881)
T1 sequence (Q08881 1-620): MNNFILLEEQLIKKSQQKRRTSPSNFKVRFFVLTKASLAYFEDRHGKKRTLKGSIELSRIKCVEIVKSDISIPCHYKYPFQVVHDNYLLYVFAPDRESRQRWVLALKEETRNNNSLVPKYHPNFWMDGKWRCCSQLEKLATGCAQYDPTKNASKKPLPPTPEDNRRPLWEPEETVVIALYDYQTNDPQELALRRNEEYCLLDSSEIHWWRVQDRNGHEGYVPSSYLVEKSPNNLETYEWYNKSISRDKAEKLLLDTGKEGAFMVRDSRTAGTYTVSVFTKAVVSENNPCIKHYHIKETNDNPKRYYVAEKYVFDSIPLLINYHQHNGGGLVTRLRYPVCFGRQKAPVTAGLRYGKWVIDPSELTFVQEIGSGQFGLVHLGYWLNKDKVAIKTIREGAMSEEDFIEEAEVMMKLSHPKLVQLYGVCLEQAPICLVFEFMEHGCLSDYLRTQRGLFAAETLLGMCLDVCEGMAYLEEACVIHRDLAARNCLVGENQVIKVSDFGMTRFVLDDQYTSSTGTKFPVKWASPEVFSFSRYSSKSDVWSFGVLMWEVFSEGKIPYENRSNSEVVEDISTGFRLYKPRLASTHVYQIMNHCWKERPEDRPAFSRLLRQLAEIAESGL
Experiment: Itk inhibition assay: spectrophotometric coupled enzyme (Method C)
Type: biochemical
Details: 100 μM ATP, read-out: Ki in the standard coupled enzyme assay (Method C)
Method: The compounds of the present invention were evaluated as inhibitors of human Itk kinase using either a radioactivity-based, spectrophotometric or alphascreen assay.
Compounds were screened for their ability to inhibit Itk using a standard coupled enzyme assay (Fox et al., Protein Sci., (1998) 7, 2249).
Assays were carried out in a mixture of 20 mM MOPS (pH 7.0), 10 mM MgCl2, 0.1% BSA, 1 mM DTT, 2.5 mM phosphoenolpyruvate, 300 μM NADH, 30 μg/ml pyruvate kinase and 10 μg/ml lactate dehydrogenase. Final substrate concentrations in the assay were 100 μM ATP (Sigma Chemicals) and 3 μM peptide (Biotinylated SAM68 Δ332-443). Assays were carried out at 25° C. and in the presence of 10 nM Itk.
An assay stock buffer solution was prepared containing all of the reagents listed above, with the exception of ATP and the test compound of interest. 60 μl of the stock solution was placed in a 96 well plate followed by addition of 2 μl of DMSO stock containing serial dilutions of the test compound (typically starting from a final concentration of 15 μM). The plate was preincubated for 10 minutes at 25° C. and the reaction initiated by addition of 5 μl of ATP. Initial reaction rates were determined with a Molecular Devices SpectraMax Plus plate reader over a 10 minute time course. IC50 and Ki data were calculated from non-linear regression analysis using the Prism software package (GraphPad Prism version 3.0cx for Macintosh, GraphPad Software, San Diego Calif., USA).

Ki, < 1000 nM:
CC(C)(C)c1cccc(Nc2ncc3ccc4sc(C(=O)N5CCOCC5)cc4c3n2)c1 [Compound V-55]
CN1CCN(C(=O)c2cc3c(ccc4cnc(Nc5cccc(C(C)(C)C)c5)nc43)s2)CC1 [Compound V-56]
O=C(c1cc2c(ccc3cnc(Nc4cccc(-c5ccccc5)c4)nc32)s1)N1CCOCC1 [Compound V-58]
CN1CCN(C(=O)c2cc3c(ccc4cnc(Nc5cccc(-c6ccccc6)c5)nc43)s2)CC1 [Compound V-59]
CC(C)(C)OC(=O)NC1CCN(C(=O)c2cc3c(ccc4cnc(Nc5cccc(-c6ccccc6)c5)nc43)s2)C1 (centres unmarked) [Compound V-60]
O=C(c1cc2c(ccc3cnc(Nc4cccc(F)c4)nc32)s1)N1CCOCC1 [Compound V-61]
CC(C)(C)OC(=O)NC1CCN(C(=O)c2cc3c(ccc4cnc(Nc5cccc(F)c5)nc43)s2)C1 (centres unmarked) [Compound V-63]
O=C(CCN1CCCCC1)Nc1cccc(Nc2ncc3ccc4sc(C(=O)N5CCOCC5)cc4c3n2)c1 [Compound V-67]
CC(=O)Nc1cccc(Nc2ncc3ccc4sc(C(=O)N5CCOCC5)cc4c3n2)c1 [Compound V-68]
O=C(CCN1CCOCC1)Nc1cccc(Nc2ncc3ccc4sc(C(=O)N5CCOCC5)cc4c3n2)c1 [Compound V-69]
CN1CCN(CCC(=O)Nc2cccc(Nc3ncc4ccc5sc(C(=O)N6CCOCC6)cc5c4n3)c2)CC1 [Compound V-70]
CN(C)CCC(=O)Nc1cccc(Nc2ncc3ccc4sc(C(=O)N5CCOCC5)cc4c3n2)c1 [Compound V-71]
CC(C)(C)c1cccc(Nc2ncc3ccc4sc(C(=O)N5CCC(N)C5)cc4c3n2)c1 (centres unmarked) [Compound V-72]
NC1CCN(C(=O)c2cc3c(ccc4cnc(Nc5cccc(-c6ccccc6)c5)nc43)s2)C1 (centres unmarked) [Compound V-73]
NC1CCN(C(=O)c2cc3c(ccc4cnc(Nc5cccc(F)c5)nc43)s2)C1 (centres unmarked) [Compound V-74]
COCCNCCC(=O)Nc1cccc(Nc2ncc3ccc4sc(C(=O)N5CCOCC5)cc4c3n2)c1 [Compound V-76]
COCCCNCCC(=O)Nc1cccc(Nc2ncc3ccc4sc(C(=O)N5CCOCC5)cc4c3n2)c1 [Compound V-77]
CC1CC(C)CN(CCC(=O)Nc2cccc(Nc3ncc4ccc5sc(C(=O)N6CCOCC6)cc5c4n3)c2)C1 (centres unmarked) [Compound V-78]
CC(C)(C)c1cccc(Nc2ncc3ccc4sc(C(=O)N5CCNCC5)cc4c3n2)c1 [Compound V-79]
O=C(c1cc2c(ccc3cnc(Nc4cccc(-c5ccccc5)c4)nc32)s1)N1CCNCC1 [Compound V-80]
CC(C)c1cccc(Nc2ncc3ccc4sc(C(=O)N5CCNCC5)cc4c3n2)c1 [Compound V-81]
CC(C)c1cccc(Nc2ncc3ccc4sc(C(=O)N5CCC(N)C5)cc4c3n2)c1 (centres unmarked) [Compound V-82]
CN1CCN(C(=O)c2cc3c(ccc4cnc(Nc5cccc(Oc6ccccc6)c5)nc43)s2)CC1 [Compound V-83]
O=C(c1cc2c(ccc3cnc(Nc4cccc(Oc5ccccc5)c4)nc32)s1)N1CCNCC1 [Compound V-84]
NC1CCN(C(=O)c2cc3c(ccc4cnc(Nc5cccc(Oc6ccccc6)c5)nc43)s2)C1 (centres unmarked) [Compound V-85]
CN1CCN(C(=O)c2cc3c(ccc4cnc(Nc5cccc(Cc6ccccc6)c5)nc43)s2)CC1 [Compound V-86]
O=C(c1cc2c(ccc3cnc(Nc4cccc(Cc5ccccc5)c4)nc32)s1)N1CCNCC1 [Compound V-87]
NC1CCN(C(=O)c2cc3c(ccc4cnc(Nc5cccc(Cc6ccccc6)c5)nc43)s2)C1 (centres unmarked) [Compound V-88]
O=C(c1cc2c(ccc3cnc(Nc4cccc(Br)c4)nc32)s1)N1CCNCC1 [Compound V-89]
Cc1ccccc1-c1cccc(Nc2ncc3ccc4sc(C(=O)N5CCNCC5)cc4c3n2)c1 [Compound V-90]
COc1ccccc1-c1cccc(Nc2ncc3ccc4sc(C(=O)N5CCNCC5)cc4c3n2)c1 [Compound V-91]
Cc1cccc(C)c1-c1cccc(Nc2ncc3ccc4sc(C(=O)N5CCNCC5)cc4c3n2)c1 [Compound V-92]
O=C(c1cc2c(ccc3cnc(Nc4cccc(-c5cccnc5)c4)nc32)s1)N1CCNCC1 [Compound V-94]
Cc1ccsc1-c1cccc(Nc2ncc3ccc4sc(C(=O)N5CCNCC5)cc4c3n2)c1 [Compound V-95]
Cc1cscc1-c1cccc(Nc2ncc3ccc4sc(C(=O)N5CCNCC5)cc4c3n2)c1 [Compound V-96]
O=C(c1cc2c(ccc3cnc(Nc4cccc(-c5ccsc5Cl)c4)nc32)s1)N1CCNCC1 [Compound V-97]
O=C(c1cc2c(ccc3cnc(Nc4ccc(N5CCOCC5)cc4)nc32)s1)N1CCNCC1 [Compound V-98]
CS(=O)(=O)c1cccc(Nc2ncc3ccc4sc(C(=O)N5CCNCC5)cc4c3n2)c1 [Compound V-100]
CS(=O)(=O)c1cccc(Nc2ncc3ccc4sc(C(=O)N5CCC(N)C5)cc4c3n2)c1 (centres unmarked) [Compound V-101]
CC(C)Oc1cccc(Nc2ncc3ccc4sc(C(=O)N5CCNCC5)cc4c3n2)c1 [Compound V-102]
CC(C)Oc1cccc(Nc2ncc3ccc4sc(C(=O)N5CCC(N)C5)cc4c3n2)c1 (centres unmarked) [Compound V-103]
CN(C)C(=O)c1cc2c(ccc3cnc(Nc4cccc(C(C)(C)C)c4)nc32)s1 [Compound V-104]
CC(=O)N1CCN(C(=O)c2cc3c(ccc4cnc(Nc5cccc(C(C)(C)C)c5)nc43)s2)CC1 [Compound V-105]
CC(=O)N1CCCN(C(=O)c2cc3c(ccc4cnc(Nc5cccc(C(C)(C)C)c5)nc43)s2)CC1 [Compound V-106]
CC(C)(C)c1cccc(Nc2ncc3ccc4sc(C(=O)NCC5CCNCC5)cc4c3n2)c1 [Compound V-107]
CC(C)(C)c1cccc(Nc2ncc3ccc4sc(C(=O)NCC5CCNC5)cc4c3n2)c1 (centres unmarked) [Compound V-108]
CC(C)(C)c1cccc(Nc2ncc3ccc4sc(C(=O)N5CCCNCC5)cc4c3n2)c1 [Compound V-109]
CC(C)(C)c1cccc(Nc2ncc3ccc4sc(C(=O)N5CC[C@H](N)C5)cc4c3n2)c1 [Compound V-110]
CC(C)(C)c1cccc(Nc2ncc3ccc4sc(C(=O)N5CC[C@@H](N)C5)cc4c3n2)c1 [Compound V-111]
O=C(c1cc2c(ccc3cnc(Nc4cccc(N5CCOCC5)c4)nc32)s1)N1CCNCC1 [Compound V-112]
O=C(c1cc2c(ccc3cnc(Nc4cccc(N5CCNCC5)c4)nc32)s1)N1CCNCC1 [Compound V-113]
CN1CCN(c2cccc(Nc3ncc4ccc5sc(C(=O)N6CCNCC6)cc5c4n3)c2)CC1 [Compound V-114]
O=C(c1cc2c(ccc3cnc(Nc4ccc(N5CCNCC5)cc4)nc32)s1)N1CCNCC1 [Compound V-115]
O=C(c1cc2c(ccc3cnc(Nc4ccncc4)nc32)s1)N1CCNCC1 [Compound V-116]
O=C(c1cc2c(ccc3cnc(Nc4cccnc4)nc32)s1)N1CCNCC1 [Compound V-117]
CC(=O)N1CCC(CNC(=O)c2cc3c(ccc4cnc(Nc5cccc(C(C)(C)C)c5)nc43)s2)CC1 [Compound V-118]
CC(=O)N1CCC(CNC(=O)c2cc3c(ccc4cnc(Nc5cccc(C(C)(C)C)c5)nc43)s2)C1 (centres unmarked) [Compound V-119]
O=C(c1ccc(Nc2ncc3ccc4sc(C(=O)N5CCNCC5)cc4c3n2)cc1)N1CCOCC1 [Compound V-120]
CN(C)C(=O)c1ccc(Nc2ncc3ccc4sc(C(=O)N5CCNCC5)cc4c3n2)cc1 [Compound V-121]
CN1CCN(C(=O)c2ccc(Nc3ncc4ccc5sc(C(=O)N6CCNCC6)cc5c4n3)cc2)CC1 [Compound V-122]
O=C(c1cc2c(ccc3cnc(NCCc4ccccc4)nc32)s1)N1CCNCC1 [Compound V-125]
O=C(c1cc2c(ccc3cnc(N[C@H]4C[C@@H]4c4ccccc4)nc32)s1)N1CCNCC1 [Compound V-127]
